The target in one series is CDK4/CycD1 (Homo sapiens, UniProt P11802). Put plainly: Kinase activity assay (MSA, EZ Reader) against CDK4.
For series [1], the system named is human ovarian cancer cells A2780. Put plainly: Cell anti-proliferation assay (MTT), A2780. It counts as cell-based. The following applies: Homo sapiens, 120 h, incubated for 5 days. The method, then:
(§1) Human breast cancer cells MCF-7, human ovarian cancer cells A2780, human mantle cell lymphoma cells JEKO-1. DMEM medium (Bio-Channel), DMSO (dimethyl sulfoxide), MTT (thiazolyl blue), 0.25% EDTA-Trypsin (trypsin digestive solution), 1×PBS (phosphate buffered saline, pH 7.2), 96-well plate (Corning), fetal bovine serum (FBS), 10,000 U/mL penicillin-G/streptomycin, high-speed refrigerated centrifuge (EPPENDORF 5810R), and microplate reader (Tecan Spark).
(§2) • A) Tumor cells were cultured in DMEM (high glucose, containing 10% FBS and 100 U/mL penicillin-G/streptomycin) at 37 °C, 5% CO2 and saturated humidity until 80-90% confluence. • B) The medium in the 10 cm culture dish was removed. • C) Cells were rinsed once with 10 mL of 1×PBS. • D) 4 mL of 0.25% EDTA-Trypsin was added, and the cells were digested in a 37 °C, 5% CO2 incubator for 5 minutes. The mixture was transferred to a 15 mL centrifuge tube, centrifuged at 200 g for 5 minutes, and the supernatant was discarded to obtain cell pellet. • E) The cells were resuspended in 4 mL of DMEM medium, counted, and adjusted to 50,000 cells/mL. • F) 100 µL of cell suspension was added to each well of a 96-well plate, and the plate was incubated overnight at 37 °C in a 5% CO2 incubator.
(§3) • A) Gradient dilution solutions of the test compounds were prepared: the test compound was prepared into a 1 mM stock solution. Then 1.5 µL of the stock solution was dissolved in 1.5 mL of DMSO-free medium, followed by 3-fold serial gradient dilution with medium containing 0.1% DMSO to give 9 concentrations.
(§4) • A) The cell culture plate was taken out, and 10 µL of 5 mg/mL MTT was added in a biological safety cabinet; • B) The plate was returned to the incubator and incubated for another 3 hours; • C) The cell culture plate was taken out and the medium was removed, 100 µL of isopropanol (containing 0.4 mM HCl, 0.1% NP-40) was added, and the plate was shaken at room temperature for 30 minutes; • D) The absorbance at 570 nm was measured using a TECAN microplate reader.

The subject of series [2] is Human breast cancer cells MCF-7. Nature of the series: Cell anti-proliferation assay (MTT), MCF-7. It counts as cell-based. The following applies: Homo sapiens, MCF7, 120 h, MCF-7 cells, incubated for 5 days. The procedure: as §1, §2, §3, §4
In the next series the target is T1, CDK6/CyclinD3 (Homo sapiens, UniProt Q00534).
T1 construct: purchased Carna 04-107
T1 sequence (Q00534 whole entry): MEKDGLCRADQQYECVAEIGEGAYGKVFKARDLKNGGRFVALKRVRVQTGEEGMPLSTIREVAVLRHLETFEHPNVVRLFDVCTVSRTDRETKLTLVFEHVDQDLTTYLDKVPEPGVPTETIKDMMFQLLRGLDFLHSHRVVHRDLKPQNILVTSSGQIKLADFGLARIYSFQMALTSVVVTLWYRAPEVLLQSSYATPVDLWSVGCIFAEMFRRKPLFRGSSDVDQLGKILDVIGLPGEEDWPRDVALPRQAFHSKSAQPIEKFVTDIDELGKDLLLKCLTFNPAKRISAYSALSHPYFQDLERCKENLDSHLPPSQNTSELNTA
T1 sequence (P30281 whole entry partner): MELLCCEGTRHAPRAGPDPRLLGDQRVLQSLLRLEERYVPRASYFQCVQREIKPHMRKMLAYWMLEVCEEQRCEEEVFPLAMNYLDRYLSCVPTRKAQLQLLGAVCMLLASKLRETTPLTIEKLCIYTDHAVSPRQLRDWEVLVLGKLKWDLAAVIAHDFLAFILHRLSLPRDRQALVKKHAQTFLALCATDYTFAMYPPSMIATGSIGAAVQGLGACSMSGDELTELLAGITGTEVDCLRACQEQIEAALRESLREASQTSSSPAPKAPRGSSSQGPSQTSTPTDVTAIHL
Put plainly: Kinase activity assay (MSA, EZ Reader) against CDK6. Type of series: biochemical. The following applies: CDK6/CyclinD3 5.00 nM, ATP 350 µM, FL-Peptide34, 10mM MgCl2.

Series [3] deals with human mantle cell lymphoma cells JEKO-1. Put plainly: Cell anti-proliferation assay (MTT), JEKO-1. It counts as cell-based. As to conditions: Homo sapiens, 120 h, JEKO-1 cells, incubated for 5 days. The method, then: as §1, §2, §3, §4
A short description of series [4]: Preclinical pharmacokinetic study in rats. It counts as in vivo, Sprague-Dawley (SD) rats. The following applies: male SD rats, oral gavage (p.o.) 10 mg/kg, plasma. The method, then:
Healthy adult Sprague-Dawley (SD) rats, male, 6-8 weeks old, weighing 200-300 g. EDTA-Na2 anticoagulant. Analytical balance, animal weighing scale, magnetic stirrer, refrigerated centrifuge, single-channel manual pipette, etc. About 10 mg of the test sample was precisely weighed, dissolved in a calculated volume of 5% DMSO, followed by addition of 10% solutol HS-15 and 85% normal saline. The mixture was sonicated and vortexed to homogeneity to obtain a solution with a concentration of 1 mg/mL. The solution was freshly prepared before use. Animals were housed in rat cages and fasted overnight (no less than 10 h) before the test, with free access to water. On the day of the test, animals were weighed and marked on the tail. Blank blood samples were collected before administration. The blood was collected via tail vein. • Route of administration: oral gavage (p.o.) • Dose: 10 mg/kg • Dosing volume: 10 mL/kg • Procedure: The rat was held upright with the left hand wearing bite-resistant glove. A 16-gauge gavage needle was inserted through the mouth into the esophagus. The needle was advanced gently without obvious resistance, and the drug solution was injected into the stomach. Whole blood (0.1 mL) were collected from each test animal before administration and at 0.5 […], and 24 h after administration into EDTA-Na2 anticoagulant tubes. The tubes were inverted 3-4 times for mixing, then centrifuged at 10,000 g for 5 min at 4 °C to separate plasma. Plasma samples were stored at -80 °C until analysis. Blood was collected via tail vein. […] The mixture was vortexed for 2 min and centrifuged at 10,000 g for 10 min at 4 °C. Processing of unknown plasma samples: 25 μL of drug-containing rat plasma was transferred, followed by addition of 25 μL of methanol and 200 μL of internal standard solution. The mixture was vortexed for 2 min and centrifuged at 10,000 g for 10 min at 4 °C. The supernatant was collected for LC-MS/MS analysis. A quantitative method for the determination of the test compound was established using a Shimadzu liquid chromatography system coupled with Triple Quad^TM 6500+ AB mass spectrometer. The concentration of the parent drug in plasma was determined. The plasma concentration-time curve was plotted, and the main pharmacokinetic parameters were calculated using a non-compartmental model in winnonlin Phoenix software.

CDK4/CycD1, sequence (P11802 whole entry): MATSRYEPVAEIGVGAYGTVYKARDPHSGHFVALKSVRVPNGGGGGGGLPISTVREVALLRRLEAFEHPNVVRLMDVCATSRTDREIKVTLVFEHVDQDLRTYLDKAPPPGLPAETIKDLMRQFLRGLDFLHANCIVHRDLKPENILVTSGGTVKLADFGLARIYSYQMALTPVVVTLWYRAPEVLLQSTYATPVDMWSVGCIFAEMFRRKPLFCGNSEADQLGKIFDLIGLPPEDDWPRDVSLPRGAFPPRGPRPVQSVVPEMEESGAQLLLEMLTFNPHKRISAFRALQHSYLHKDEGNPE

Consider `CC(C)n1c(N(C)C)nc2c(F)cc(-c3nc(N[C@@H]4CCOC[C@H]4O)ncc3Cl)cc21` [TB-1], for which the IC50 was 0.0037 µM on CDK4/CycD1; no more than 0.5 µM in series [1]; no more than 0.5 µM in series [2]; 0.0678 µM against CDK6/CyclinD3; no more than 0.5 µM in series [3].

For the molecule `CC(C)n1c(N(C)C)nc2c(F)cc(-c3nc(NC4CCOCC4)ncc3Cl)cc21` [TB-2, 6-(5-chloro-2-((tetrahydro-2H-pyran-4-yl)amino)pyrimidin-4-yl)-4-fluoro-1-isopropyl-N,N-dimethyl-1H-benzo[d]imidazol-2-amine], the IC50 against CDK4/CycD1 is 0.018 µM; in series [1] it was no more than 0.5 µM; in series [2], no more than 0.5 µM; on CDK6/CyclinD3 it was 0.319 µM; in series [3], no more than 0.5 µM.

Turning to `CC(C)n1c(N(C)C)nc2c(F)cc(-c3nc(NC4CCN(S(C)(=O)=O)CC4)ncc3Cl)cc21` [TB-3, 6-(5-chloro-2-((1-(methylsulfonyl)piperidin-4-yl)amino)pyrimidin-4-yl)-4-fluoro-1-isopropyl-N,N-dimethyl-1H-benzo[d]imidazol-2-amine], the IC50 against CDK4/CycD1 was 0.00697 µM; in series [1], no more than 0.5 µM; in series [2] it was no more than 0.5 µM; at CDK6/CyclinD3 it was 0.0749 µM; in series [3], no more than 0.5 µM.

With `CC(C)n1c(N(C)C)nc2c(F)cc(-c3nc(N[C@H]4CC[C@@H](NS(C)(=O)=O)CC4)ncc3Cl)cc21` [TB-4], the IC50 against CDK4/CycD1 worked out at 0.0271 µM.

Turning to `CC(C)n1c(N(C)C)nc2c(F)cc(-c3nc(N[C@H]4CC[C@H](NS(C)(=O)=O)CC4)ncc3Cl)cc21` [TB-5], the IC50 against CDK4/CycD1 was 0.00424 µM; in series [1], no more than 0.5 µM; in series [2], no more than 0.5 µM; against CDK6/CyclinD3, 0.0716 µM; in series [3], no more than 0.5 µM.

For the molecule `CC(C)n1c(N2CC[C@H](O)C2)nc2c(F)cc(-c3nc(N[C@@H]4CCOC[C@H]4O)ncc3Cl)cc21` [TB-6, (S)-1-(6-(5-chloro-2-(((3S,4R)-3-hydroxytetrahydro-2H-pyran-4-yl)amino)pyrimidin-4-yl)-4-fluoro-1-isopropyl-1H-benzo[d]imidazol-2-yl)pyrrolidin-3-ol], the IC50 was 0.0108 µM against CDK4/CycD1; no more than 0.5 µM in series [1]; 0.5 to 2 µM in series [2]; 0.19 µM against CDK6/CyclinD3; no more than 0.5 µM in series [3].

Consider `CC(C)n1c(N2CC[C@@H](O)C2)nc2c(F)cc(-c3nc(N[C@@H]4CCOC[C@H]4O)ncc3Cl)cc21` [TB-7, (R)-1-(6-(5-chloro-2-(((3S,4R)-3-hydroxytetrahydro-2H-pyran-4-yl)amino)pyrimidin-4-yl)-4-fluoro-1-isopropyl-1H-benzo[d]imidazol-2-yl)pyrrolidin-3-ol], for which the IC50 on CDK4/CycD1 is 0.00294 µM; in series [1], no more than 0.5 µM; in series [2] it was no more than 0.5 µM; on CDK6/CyclinD3 it was 0.113 µM; in series [3], no more than 0.5 µM.

In the case of `CNS(=O)(=O)c1ccc(Nc2ncc(Cl)c(-c3cc(F)c4nc(N(C)C)n(C(C)C)c4c3)n2)cc1` [TB-20, 4-((5-chloro-4-(2-(dimethylamino)-4-fluoro-1-isopropyl-1H-benzo[d]imidazol-6-yl)pyrimidin-2-yl)amino)-N-methylbenzenesulfonamide], the IC50 against CDK4/CycD1 came to 0.0446 µM; at CDK6/CyclinD3, 0.141 µM.

Molecule `CC(C)n1c(N2CCCC2=O)nc2c(F)cc(-c3nc(N[C@@H]4CCOC[C@H]4O)ncc3Cl)cc21` [TB-23] yielded an IC50 at CDK4/CycD1 of 0.185 µM.

As to `CC(C)n1c(N2CCOC2=O)nc2c(F)cc(-c3nc(Nc4ccc(S(C)(=O)=O)cc4)ncc3Cl)cc21` [TB-54, 3-(6-(5-chloro-2-((4-(methylsulfonyl)phenyl)amino)pyrimidin-4-yl)-4-fluoro-1-isopropyl-1H-benzo[d]imidazol-2-yl)oxazolidin-2-one], the IC50 against CDK4/CycD1 was found to be 0.101 µM; on CDK6/CyclinD3 it was 0.411 µM.

In series [4] (Sprague-Dawley, rat), `C[C@H]1CCN(C)c2nc3c(F)cc(-c4nc(N[C@@H]5CCOC[C@H]5O)ncc4Cl)cc3n21` [TB-92, (3S,4R)-4-((5-chloro-4-((S)-9-fluoro-1,4-dimethyl-1,2,3,4-tetrahydrobenzo[4,5]imidazo[1,2-a]pyrimidin-7-yl)pyrimidin-2-yl)amino)tetrahydro-2H-pyran-3-ol] returned an AUC(0-t) of 5020 ng·h/mL. In addition, the highest concentration (Cmax) in series [4] (Sprague-Dawley, rat) amounted to 1940 ng/mL. Besides, in series [4] (Sprague-Dawley, rat), the Tmax amounted to 30 min. Besides, the “HL_” value in series [4] was 1.21 h. The IC50 in series [1] was no more than 0.5 µM; in series [2], no more than 0.5 µM; against CDK6/CyclinD3 it was 0.123 µM; in series [3], no more than 0.5 µM.

As to `CC(C)n1c(N2CCOC2=O)nc2c(F)cc(-c3ccnc(NC4CCN(S(C)(=O)=O)CC4)n3)cc21` [TB-94], the results for the IC50 against CDK4/CycD1 and on CDK6/CyclinD3 were 0.0444 µM and 0.458 µM, respectively.

`C[C@H]1CCN(C)c2nc3c(F)cc(-c4nc(N[C@@H]5CCN(S(C)(=O)=O)C[C@H]5O)ncc4Cl)cc3n21` [TB-96]: the IC50 stood at 0.0021 µM against CDK4/CycD1 and 0.0203 µM at CDK6/CyclinD3.

`CN1CCCn2c1nc1c(F)cc(-c3nc(NC4CCOCC4)ncc3Cl)cc12` [TB-132, 5-chloro-4-(9-fluoro-1-methyl-1,2,3,4-tetrahydrobenzo[4,5]imidazo[1,2-a]pyrimidin-7-yl)-N-(tetrahydro-2H-pyran-4-yl)pyrimidin-2-amine]: the IC50 was no more than 0.5 µM in series [1], 0.5 to 2 µM in series [2], 0.246 µM against CDK6/CyclinD3 and no more than 0.5 µM in series [3].

On to `CC(C)n1c(N2CCCOC2=O)nc2c(F)cc(-c3nc(NC4CCN(S(C)(=O)=O)CC4)ncc3Cl)cc21` [TB-142], for which the figures for the IC50 at CDK4/CycD1 and on CDK6/CyclinD3 were 0.0695 µM and 0.361 µM, respectively.

As for `CCS(=O)(=O)N1CCC(Nc2ncc(Cl)c(-c3cc(F)c4nc5n(c4c3)CCCN5C)n2)CC1` [TB-143, 5-chloro-N-(1-(ethylsulfonyl)piperidin-4-yl)-4-(9-fluoro-1-methyl-1,2,3,4-tetrahydrobenzo[4,5]imidazo[1,2-a]pyrimidin-7-yl)pyrimidin-2-amine], the IC50 is no more than 0.5 µM in series [1], no more than 0.5 µM in series [2], 0.0583 µM at CDK6/CyclinD3 and no more than 0.5 µM in series [3].

Regarding `CNS(=O)(=O)N1CCC(Nc2ncc(Cl)c(-c3cc(F)c4nc5n(c4c3)CCCN5C)n2)CC1` [TB-144, 4-((5-chloro-4-(9-fluoro-1-methyl-1,2,3,4-tetrahydrobenzo[4,5]imidazo[1,2-a]pyrimidin-7-yl)pyrimidin-2-yl)amino)-N-methylpiperidine-1-sulfonamide], the IC50 in series [1] was no more than 0.5 µM; in series [2] it was no more than 0.5 µM; on CDK6/CyclinD3 it was 0.126 µM; in series [3], no more than 0.5 µM.

`CC1(C)Cn2c(nc3c(F)cc(-c4nc(N[C@@H]5CCOC[C@H]5O)ncc4Cl)cc32)S(=O)(=O)C1` [TB-148]: the IC50 at CDK4/CycD1 was 0.0714 µM; against CDK6/CyclinD3, 0.222 µM.
